Columns and labels:
CEM cells = experiment: Combination index (median-effect) of bcl-x antisense with chemotherapeutic drugs in CEM cells; assay type: cell-based, human
Description: To determine if synergy existed between the bcl-x and the chemotherapeutic drugs dexamethasone or doxorubicin, the median-effect principle of Chou (“The median-effect principle and the combination index for quantification of synergism and antagonism. In Synergism and Antagonism in Chemotherapy, T.-C. Chou and D. Rideout, eds., Academic Press, New York, pp. 61–102) was used to determine dose-effect parameters for the drugs individually and for the combinations of bcl-x antisense plus dexamethasone or bcl-x antisense plus doxorubicin. This method analyzes the shape of the drug dose-response curves for each drug, combination of drugs and quantitates synergism/antagonism at different concentrations. Median effect computer software (CalcuSyn for Windows, Biosoft, Ferguson, Mo.) was used to generate the combination index (CI), where a CI value of <1, =1, >1 indicates synergism (i.e., the effect of drug combination is greater than anticipated from the additive effect of the individual agents), additive effect, and antagonism, respectively.
Treatment of CEM cells with bcl-x antisense oligonucleotide makes the cells more sensitive to killing by doxorubicin or dexamethasone (FIGS. 9A–B). These, or similar drugs, are used frequently for acute lymphocytic leukemia treatment. The use of any of these therapeutic agents in combination with one or more antisense oligonucleotides to bcl-x is within the scope of the present invention. For these experiments, the CEM cells were electroporated with either the bcl-x antisense or control oligonucleotides, cultured for one day, then treated with the indicated concentrations of drug. […] A CI of <0.3 is classified as a strong degree of synergism, and 0.3 to 0.7 is classified as synergism. […] For the doses tested of doxorubicin, the CI ranged from 0.7 to 1.3.

bcl-x protein = experiment: Western blot analysis of bcl-x protein levels in A549; assay type: cell-based, human
Experimental: Western blot analysis (immunoblot analysis) was carried out using standard methods. Generally, cells were harvested 16–20 hours after oligonucleotide treatment, washed once with PBS, suspended in Laemmli buffer (100 μl/well), boiled for 5 minutes and loaded on a 16% SDS-PAGE gel. Gels were run for 1.5 hours at 150 V, and transferred to membrane for western blotting. Appropriate primary antibody directed to bcl-x was used, with a radiolabelled or fluorescently labeled secondary antibody directed against the primary antibody species. Bands were visualized using a PHOSPHORIMAGER™ (Molecular Dynamics, Sunnyvale Calif.).
ISIS 15999 and 16009 were tested for the ability to reduce bcl-x protein levels in A549.

## TCCCGGTTGCTCTGAGACAT (5-10-5 2'-MOE gapmer, phosphorothioate, further chemistry not given here) [ISIS 15999]
CEM cells; with dexamethasone, three highest doses
  combination index (CI): < 0.3
CEM cells; with dexamethasone, two lower doses
  combination index (CI): 0.3 to 0.4
CEM cells; with doxorubicin, doses tested
  combination index (CI): 0.7 to 1.3
bcl-x protein
  bcl-x protein levels: reduce bcl-x protein levels in a dose-dependent manner
